Experimental data reported in ChEMBL document CHEMBL6115010, “Targeting glioma with heteroaromatic alkaloids: A review of potential therapeutics” (Bioorg Med Chem, 2025).
Converted amounts (≈) assume the structure as drawn.

Assays:
U-251 [1] = experiment: Antiproliferative activity against human U-251MG cells assessed as reduction in cell viability incubated for 72 hrs by SRB assay; type: functional, cell-based; details: U-251, 72 h
[2] = Cytotoxicity against human GSC-3 cells assessed as reduction in cell growth incubated for 72 hrs by MTS assay; type: functional, cell-based; details: GSC-3, 72 h
[3] = Cytotoxicity against rat ASK cells assessed as reduction in cell growth by SRB assay; type: functional; details: read-out: ED50 (the source's name)
[4] = Cytotoxicity against human GSC-18 cells assessed as reduction in cell growth incubated for 72 hrs by MTS assay; type: functional, cell-based; details: GSC18, 72 h
U-87 MG [5] = experiment: Cytotoxicity against human U-87 MG cells assessed as reduction in cell growth incubated for 48 hrs by MTT assay; type: functional, cell-based, U-87MG ATCC
U-87 MG [6] = experiment: Growth inhibition of human U-87 MG cells measured after 72 hrs by MTT assay; type: functional, U-87MG ATCC
[7] = Growth inhibition of human U373 MG cells measured after 72 hrs by MTT assay; type: functional, U-373MG ATCC
Hs68 = experiment: Growth inhibition of human Hs68 cells measured after 72 hrs by MTT assay; type: functional
T98G [8] = experiment: Growth inhibition of human T98G cells measured after 72 hrs by MTT assay; type: functional
[9] = Toxicity in ip dosed B6D2F1 mouse assessed as maximum tolerated dose measured after 28 days; type: organism-based; details: in vivo, time 28 day
SW1088 = experiment: Cytotoxicity against human SW1088 cells assessed as reduction in cell growth incubated for 24 hrs by MTT colorimetric assay; type: functional, cell-based; details: SW1088, 24 h
[10] = Cytotoxicity against human U373 MG cells assessed as reduction in cell growth incubated for 24 hrs by MTT colorimetric assay; type: functional, cell-based, U-373MG ATCC
LN-18 = experiment: Antiproliferative activity against human LN-18 cells assessed as inhibition of cell growth incubated for 72 hrs MTS assay; type: functional, cell-based; details: LN-18, 72 h
C6 [11] = experiment: Antiproliferative activity against rat C6 cells assessed as reduction in cell viability by MTT assay; type: functional, cell-based
T98G [12] = experiment: Antiproliferative activity against human T98G cells assessed as reduction in cell viability by MTT assay; type: functional, cell-based
T98G [13] = experiment: Antiproliferative activity against human T98G cells assessed as reduction in cell viability measured for 24 hrs by MTT assay; type: functional, cell-based
U-251 [14] = experiment: Antiproliferative activity against human U-251MG cells assessed as reduction in cell viability incubated for 72 hrs by MTT assay; type: functional, cell-based; details: U-251, 72 h
[15] = Antiproliferative activity against human SHG-44 cells assessed as reduction in cell viability by MTT assay; type: functional, cell-based
LN-229 = experiment: Antiproliferative activity against human LN-229 cells assessed as reduction in cell viability by MTT assay; type: functional, cell-based
C6 [16] = experiment: Antiproliferative activity against rat C6 cells assessed as reduction in cell growth at 10 uM incubated for 24 hrs by MTT assay relative to control; type: functional; design: scale not given: the % may be the effect or the level left
U-118-MG = experiment: Antiproliferative activity against human U-118-MG cells assessed as reduction in cell viability incubated for 72 hrs by MTT assay; type: functional, cell-based
U-87 MG [17] = experiment: Antiproliferative activity against human U-87 MG cells assessed as reduction in cell viability incubated for 72 hrs by MTT assay; type: functional, cell-based, U-87MG ATCC
GAMG = experiment: Antiproliferative activity against human GAMG cells assessed as reduction in cell viability incubated for 48 hrs by MTS reagent based assay; type: functional
U-87 MG [18] = experiment: Cytotoxicity against human U-87 MG cells assessed as reduction in cell viability in presence of Jerantinine B incubated for 72 hrs by neutral red uptake assay; type: functional, cell-based, U-87MG ATCC
U-87 MG [19] = experiment: Cytotoxicity against human U-87 MG cells assessed as reduction in cell viability incubated for 72 hrs by neutral red uptake assay; type: functional, cell-based, U-87MG ATCC
U-87 MG [20] = experiment: Antiproliferative activity against human U-87-MG cells; type: functional, cell-based, U-87MG ATCC
U-87 MG [21] = experiment: Cytotoxicity against human U-87 MG cells by resazurin dye based assay; type: functional, cell-based, U-87MG ATCC
SF-268 [22] = experiment: Cytotoxicity against human SF-268 cells assessed as reduction in cell viability incubated for 72 hrs by MTT assay; type: functional, cell-based; details: SF-268, 72 h
U-251 [23] = experiment: Cytotoxicity against human U-251MG cells assessed as reduction in cell growth; type: functional, cell-based
[24] = Cytotoxicity against human U87MG.deltaEGFR cells by resazurin dye based assay; type: functional, cell-based
U-87 MG [25] = experiment: Antiproliferative activity against human U-87 MG cells assessed as reduction in cell viability incubated for 72 hrs by Presto-Blue cell viability assay; type: functional, cell-based, U-87MG ATCC
U-251 [26] = experiment: Induction of apoptosis in human U-251MG cells assessed as increase in PARP cleavage at 12.5 to 100 uM incubated for 24 hrs by Western blot analysis; type: functional; details: dose 12.5-100 µM
H4 = experiment: Antiproliferative activity against human H4 cells assessed as reduction in cell viability incubated for 72 hrs by Presto-Blue cell viability assay; type: functional, cell-based; details: H4, 72 h
U-87 MG [27] = experiment: Antitumor activity against human U-87 MG cells xenografted in mouse model assessed as reduction in tumor growth at 15 mg/kg, ip administered once daily for 5 days relative to control; type: functional, U-87MG ATCC; design: scale not given: the % may be the effect or the level left; details: time 5 day
HaCaT = experiment: Growth inhibition of human HaCaT cells measured after 48 hrs by sulforhodamine B assay; type: functional
U-251 [28] = experiment: Growth inhibition of human U-251 cells measured after 48 hrs by sulforhodamine B assay; type: functional
RPMI 8402 = experiment: Cytotoxicity against human RPMI 8402 cells assessed as reduction in cell viability incubated for 4 days by MTT assay; type: functional, cell-based; details: RPMI 8402, 96 h
SF-268 [29] = experiment: Cytotoxicity against human SF-268 cells assessed as reduction in cell viability incubated for 4 days by MTT assay; type: functional; details: SF-268, 96 h, time 4 day
SF-268 [30] = experiment: Cytotoxicity against human SF-268 cells; type: functional; details: read-out: ED50 (the source's name)
T98G [31] = experiment: Antiproliferative activity against human T98G cells assessed as reduction in cell viability incubated for 72 hrs by WST-8 reagent based assay; type: functional
[32] = Cytotoxicity against HEK293T cells assessed as reduction in cell viability incubated for 72 hrs by MTS assay; type: toxicity, cell-based, HEK-293T; details: human
T98G [33] = experiment: Inhibition of colony formation in human T98G cells assessed as reduction in number of cell clone measured after 14 days by crystal violet staining based microscopic analysis; type: functional; details: 336 h
U-87 MG [34] = experiment: Antiproliferative activity against human U-87 MG cells assessed as reduction in cell viability incubated for 72 hrs by WST-8 reagent based assay; type: functional, U-87MG ATCC
T98G [35] = experiment: Anticancer activity against human T98G cells assessed as reduction in cell viability; type: functional, cell-based
[36] = Inhibition of colony formation in human U-251MG cells assessed as reduction in number of cell clone measured after 14 days by crystal violet staining based microscopic analysis; type: functional; details: 336 h

CC1=NC(C(=O)O)Cc2c1[nH]c1cc([C@H](c3c[nH]c4ccccc34)[C@@H](O)CO)[nH]c21 (some centres undefined)
IC50 (U-251 [1]): 26.1 µM

COc1cc2c(cc1Oc1c(C=O)ccc(OC)c1OC)C(=O)c1nccc3c(OC)c(OC)c(OC)c-2c13
IC50 [2]: 2.36 µg/mL (≈ 4.44 µM)
EC50 [3]: 10.2 µg/mL (≈ 19.2 µM)
IC50 [4]: 2.55 µg/mL (≈ 4.8 µM)

Oc1cc2cccc(O)c2cn1
IC50 (U-87 MG [5]): 3.46 µM

O[C@@H]1CN2Cc3cc4c(cc3C13C=C[C@H](O)C[C@@H]23)OCO4 (some centres undefined)
GI50 (U-87 MG [6]): 9 µM
GI50 [7]: 38 µM
GI50 (Hs68): 11 µM
GI50 (T98G [8]): 9 µM

O=C1c2cccnc2-c2nccc3c2c1nc1ccccc13 [ASCIDIDEMIN]
MTD at 672 h [9]: 40 mg/kg
IC50 (SW1088): 0.6 µM
IC50 [10]: 0.5 µM

COc1ccc2cc3[n+](cc2c1OC)CCc1cc2c(cc1-3)OCO2 [BERBERINE]
IC50 (LN-18): 89.7 µM
IC50 (C6 [11]): 50.9 µM
IC50 (T98G [12]): 120 µM
IC50 (T98G [13]): 134 µg/mL
IC50 (U-251 [14]): 9.79 µM
IC50 [15]: 0.2748 µg/mL
IC50 (LN-229): 0.0813 µg/mL
Activity (C6 [16]): 88%
IC50 (U-118-MG): 35.5 µM
IC50 (U-87 MG [17]): 21.8 µM

O=P1(N(CCCl)CCCl)NCCCO1 (centres undefined) [CYCLOPHOSPHAMIDE ANHYDROUS]
IC50 (GAMG): 50.9 µM

CC(C)=CCC/C(C)=C/CC/C(C)=C/CC[C@]1(C)CCc2cc(O)cc(C)c2O1 [DELTA-TOCOTRIENOL]
IC50 (U-87 MG [18]): 1.83 µg/mL
IC50 (U-87 MG [19]): 3.12 µg/mL (≈ 7.87 µM)

COc1cc2c(cc1OC)-c1c3c(cc4c1[C@H](C2)N(C)CC4)OCO3 [DICENTRINE]
IC50 (U-87 MG [20]): 4.73 µM

COc1cccc2c1C(=O)c1c(O)c3c(c(O)c1C2=O)C[C@@](O)(C(=O)CO)C[C@@H]3O[C@H]1C[C@H](N)[C@H](O)[C@H](C)O1 [DOXORUBICIN]
IC50 (U-87 MG [21]): 1.06 µM
IC50 (SF-268 [22]): 0.7 µM
IC50 (U-251 [23]): 0.237 µM
IC50 [24]: 6.11 µM

COc1ccc2c(c1)[nH]c1c(C)nccc12 [HARMINE]
IC50 (U-87 MG [25]): 45.3 µM
Activity (U-251 [26]): 346%
IC50 (H4): 4.9 µM
Activity (U-87 MG [27]): 16.5%

COc1cc2c(cc1OC)-c1cc3ccc(OC)c(OC)c3c[n+]1CC2 [PALMITINE]
GI50 (HaCaT): 122 µM
GI50 (U-251 [28]): 16.2 µM
IC50 (RPMI 8402): 10 µg/mL
GI50 (SF-268 [29]): 3 µg/mL

O=C1N[C@H]2[C@H](O)[C@H](O)[C@@H](O)[C@H](O)[C@@H]2c2cc3c(c(O)c21)OCO3 [PANCRATISTATIN]
EC50 (SF-268 [30]): 0.017 µg/mL (≈ 0.0523 µM)

Cn1nnc2c(C(N)=O)ncn2c1=O [TEMOZOLOMIDE]
EC50 (T98G [31]): 390 µM
IC50 at 72 h [32]: > 50 µg/mL
EC50 (T98G [33]): 430 µM
IC50 (U-251 [14]): > 320 µM
EC50 (U-87 MG [34]): 42 µM
EC50 (T98G [35]): 150 µM
EC50 [36]: 23 µM
IC50 (U-118-MG): > 320 µM
IC50 (U-87 MG [17]): 135 µM

CC[C@]1(O)C[C@H]2CN(CCc3c([nH]c4ccccc34)[C@@](C(=O)OC)(c3cc4c(cc3OC)N(C=O)[C@H]3[C@@](O)(C(=O)OC)[C@H](OC(C)=O)[C@]5(CC)C=CCN6CC[C@]43[C@@H]65)C2)C1 [VINCRISTINE]
IC50 (GAMG): 30.4 µM
